In patent publication US9216973B2, “Insecticidal compounds” (Syngenta Participations AG, priority 2008, dated 2015):

Tests used:
Assay type in all cases: in vivo
[1] = test system: Heliothis virescens (Tobacco budworm); experiment: Heliothis virescens egg test on artificial diet; details: for pest or weed control at 200 ppm: 96 h, 200 ppm (concentration in well 18 ppm), eggs 0-24 h old on artificial diet, egg mortality, larval mortality, growth regulation after 4 days, read-out: control of Heliothis virescens; for effect on mortality, feeding behavior, or growth regulation: same protocol, 200 ppm
Description: (§1) This Example illustrates the insecticidal and acaricidal properties of compounds of formula (I). The tests were performed as follows:
(§2) Cotton leaf discs were placed on agar in a 24-well microtiter plate and sprayed with test solutions at an application rate of 200 ppm. After drying, the leaf discs were infested with 5 L1 larvae. The samples were checked for mortality, feeding behavior, and growth regulation 3 days after treatment (DAT). The following compound gave at least 80% control of Spodoptera littoralis: A1, A2, A5, A6, A7, A8, A10, A11, A12, A13, A14, A15, A16, A17, A18, A19, A21, A22, A23, A24, A25, A30, A31, A32, A33, A34, A35, A39, A40, A41 A42, A43, A44, A45, A46, A47, A48, A49, A50, A51, A53, A54, A55, A59, A60, A61, A62. Heliothis virescens (Tobacco budworm): Eggs (0-24 h old) were placed in 24-well microtiter plate on artificial diet and treated with test solutions at an application rate of 200 ppm (concentration in well 18 ppm) by pipetting. After an incubation period of 4 days, samples were checked for egg mortality, larval mortality, and growth regulation. The following compound gave at least 80% control of Heliothis virescens: A1, A2, A3, A4, A5, A6, A7, A8, A10, A11, A12, A13, A14, A15, A16, A18, A19, A21, A22, A24, A25, A30, A31, A32, A33, A34, A35, A37, A38, A39, A40, A42, A43, A44, A45, A46, A47, A48, A49, A50, A51, A55, AA57, A58, A59, A60, A61, A62. Plutella xylostella (Diamond back moth): 24-well microtiter plate (MTP) with artificial diet was treated with test solutions at an application rate of 200 ppm (concentration in well 18 ppm) by pipetting. After drying, the MTP's were infested with L2 larvae (7-12 per well). After an incubation period of 6 days, samples were checked for larval mortality and growth regulation. The following compound gave at least 80% control of Plutella xylostella: A1, A2, A5, A6, A7, A8, A9, A10, A11, A12, A13, A14, A15, A16, A17, A18, A19, A20, A21, A22, A24, A25, A30, A31, A32, A33, A34, A35, A37, A38, A39, A40, A42, A43, A44, A45, A46, A47, A48, A49, A50, A51, A52, A53, A54, A55, A57, A58, A59, A60, A61, A62, B3. Diabrotica balteata (Corn root worm): A 24-well microtiter plate (MTP) with artificial diet was treated with test solutions at an application rate of 200 ppm (concentration in well 18 ppm) by pipetting. After drying, the MTP's were infested with L2 larvae (6-10 per well). After an incubation period of 5 days, samples were checked for larval mortality and growth regulation. The following compound gave at least 80% control of Diabrotica balteata: A1, A2, A5, A6, A7, A10, A11, A12, A13, A14, A15, A16, A17, A18, A19, A21, A22, A24, A25, A30, A31, A32, A33, A34, A35, A38, A39, A40, A42, A43, A44, A45, A46, A47, A48, A49, A50, A59, A60, A61, A62. Thrips tabaci (Onion thrips): Sunflower leaf discs were placed on agar in a 24-well microtiter plate and sprayed with test solutions at an application rate of 200 ppm. After drying, the leaf discs were infested with an […] population of mixed ages. After an incubation period of 7 days, samples were checked for mortality. The following compounds gave at least 80% control of Thrips tabaci: A1, A2, A5, A6, A7, A8, A10, A12, A13, A14, A15, A16, A17, A18, A19, A21, A24, A25, A30, A31, A32, A33, A34, A35, A39, A42, A43, A44, A45, A46, A47, A48, A49, A50, A51, A53, A54, A57, A58, A59, A60, A61, A62. Tetranychus urticae (Two-spotted spider mite): Bean leaf discs on agar in 24-well microtiter plates were sprayed with test solutions at an application rate of 200 ppm. After drying, the leaf discs are infested with mite populations of mixed ages. 8 days later, discs are checked for egg mortality, larval mortality, and adult mortality. The following compound gave at least 80% control of Tetranychus urticae: A1, A2, A4, A5, A6, A7, A8, A10, A11, A12, A13, A14, A15, A16, A17, A18, A19, A20, A21, A22, A30, A31, A32, A33, A34, A35, A39, A40, A41, A42, A43, A44, A45, A46, A47, A48, A49, A50, A51, A53, A54, A55, A57, A59, A60, A61, A62.

[2] = test system: Diabrotica balteata (Corn root worm); experiment: Diabrotica balteata larvae test on artificial diet; details: for pest or weed control at 200 ppm: 120 h, 200 ppm (concentration in well 18 ppm), artificial diet, L2 larvae, larval mortality and growth regulation after 5 days; for effect on mortality, feeding behavior, or growth regulation: same protocol, 200 ppm
Description: as §1, §2

[3] = test system: Thrips tabaci (Onion thrips); experiment: Thrips tabaci sunflower leaf disc spray test; details: for pest or weed control at 200 ppm: foliar, 168 h, 200 ppm spray on sunflower leaf discs, population of mixed ages, mortality after 7 days; for effect on mortality, feeding behavior, or growth regulation: same protocol, 200 ppm
Description: as §1, §2

[4] = test system: Plutella xylostella (Diamond back moth); experiment: Plutella xylostella larvae test on artificial diet; details: for pest or weed control at 200 ppm: 144 h, 200 ppm (concentration in well 18 ppm), artificial diet, L2 larvae, larval mortality and growth regulation after 6 days; for effect on mortality, feeding behavior, or growth regulation: same protocol, 200 ppm
Description: as §1, §2

[5] = test system: Tetranychus urticae (Two-spotted spider mite); experiment: Tetranychus urticae bean leaf disc spray test; details: for pest or weed control at 200 ppm: foliar, 192 h, 200 ppm spray on bean leaf discs, mite populations of mixed ages, egg, larval and adult mortality 8 days later, read-out: control of Tetranychus urticae; for effect on mortality, feeding behavior, or growth regulation: same protocol, 200 ppm
Description: as §1, §2

SMILES	pest or weed control at 200 ppm [1] [%]	pest or weed control at 200 ppm [2] [%]	pest or weed control at 200 ppm [3] [%]	pest or weed control at 200 ppm [4] [%]	pest or weed control at 200 ppm [5] [%]	effect on mortality, feeding behavior, or growth regulation [1]	effect on mortality, feeding behavior, or growth regulation [2]	effect on mortality, feeding behavior, or growth regulation [3]	effect on mortality, feeding behavior, or growth regulation [4]	effect on mortality, feeding behavior, or growth regulation [5]
Cc1cc(C2CC(c3cc(Cl)cc(Cl)c3)(C(F)(F)F)ON2C)ccc1C(=O)NC1CSC1 (stereo not drawn) [A21]	≥ 80	≥ 80	≥ 80	≥ 80	≥ 80					
Cc1cc(C2=NOC(c3cc(Cl)cc(Cl)c3)(C(F)(F)F)C2Br)ccc1C(=O)NC1C[S+]([O-])C1 (stereo not drawn) [A7]	≥ 80		≥ 80	≥ 80	≥ 80					
Cc1cc(C2=NCC(c3cc(Cl)cc(Cl)c3)(C(F)(F)F)C2)ccc1C(=O)NC1CSC1 (stereo not drawn) [A49]	≥ 80	≥ 80	≥ 80	≥ 80	≥ 80					
Cc1nc2c(C3=NOC(c4cc(Cl)cc(Cl)c4)(C(F)(F)F)C3)ccc(C(=O)NC3C[S+]([O-])C3)c2o1 (stereo not drawn) [A28]						little or no effect	little or no effect	little or no effect	little or no effect	little or no effect
O=C(NC1C[S+]([O-])C1)c1ccc(C2=NOC(c3cc(Cl)cc(Cl)c3)(C(F)(F)F)C2Br)c2ccccc12 (stereo not drawn) [A44]	≥ 80	≥ 80	≥ 80	≥ 80	≥ 80					
Cc1nc2c(C3=NOC(c4cc(Cl)cc(Cl)c4)(C(F)(F)F)C3)ccc(C(=O)NC3(C)CSC3)c2o1 (stereo not drawn) [A27]						little or no effect	little or no effect	little or no effect	little or no effect	little or no effect
Cc1nc2c(C3=NOC(c4cc(Cl)cc(Cl)c4)(C(F)(F)F)C3)ccc(C(=O)NC3CS(=O)(=O)C3)c2o1 (stereo not drawn) [A26]						little or no effect	little or no effect	little or no effect	little or no effect	little or no effect
O=C(NC1CS(=O)(=O)C1)c1ccc(C2=NOC(c3cc(Cl)cc(Cl)c3)(C(F)(F)F)C2)c2ccccc12 (stereo not drawn) [A15]	≥ 80	≥ 80	≥ 80	≥ 80	≥ 80					
Cc1cc(N2CC(c3cc(Cl)cc(Cl)c3)(C(F)(F)F)OC2=O)ccc1C(=O)NC1CSC1 (stereo not drawn) [A11]	≥ 80	≥ 80		≥ 80	≥ 80					
Cc1cc(C2=NOC(c3cc(Cl)cc(Cl)c3)(C(F)(F)F)C2Cl)ccc1C(=O)NC1(C)CSC1 (stereo not drawn) [A33]	≥ 80	≥ 80	≥ 80	≥ 80	≥ 80					
